Laboratory results taken from patent publication US20160074291A1, “ANTI-AGING SKIN CARE COMPOSITIONS AND REGIMENS” (The Procter & Gamble Company, priority 2014, published 2016).

How the values were obtained:
[1] = test system: "Clear and Detox" module genes; experiment: Eigengene analysis of "Clear and Detox" co-expression module; settings: FIG. 8
skin barrier formation = experiment: Eigengene analysis of younger-appearance genes, skin barrier; assay type: cell-based; settings: cultured human keratinocytes
[2] = test system: "Repair and Rebuild" associated genes; experiment: Eigengene analysis of "Repair and Rebuild" co-expression module; settings: 301 genes, FIG. 9

Row | Substance | effect on "Clear and Detox" eigengene [1] | effects relating to successful aging in skin barrier formation (skin barrier formation) | effect on "Repair and Rebuild" eigengene [2]
1 | palmitoyl-lysine-threonine [Pal-KT] | significantly up-regulates | Effects relating to successful aging were also identified | –
2 | palmitoyl-lysine-threonine-threonine-lysine-serine [Pal-KTTKS] | – | – | significantly up-regulate
